From ChEMBL document CHEMBL3390836, “Mannich- and LedererManasse-based analogues of the natural product S-(+)-curcuphenol as cancer proliferation and migration inhibitors” (Medchemcomm, 2012)

What was measured:
NCI-H226 = experiment: Cytotoxicity against human NCI-H226 cells assessed as cell growth at 10 uM after 48 hrs by SRB assay relative to control; format: functional; conditions: NCI-H226, 48 h, read-out: Activity
ACHN = experiment: Cytotoxicity against human ACHN cells assessed as cell growth at 10 uM after 48 hrs by SRB assay relative to control; format: functional; conditions: read-out: Activity
SF-539 = experiment: Cytotoxicity against human SF539 cells assessed as cell growth at 10 uM after 48 hrs by SRB assay relative to control; format: functional; conditions: SF-539, 48 h, read-out: Activity
K562 = experiment: Cytotoxicity against human K562 cells assessed as cell growth at 10 uM after 48 hrs by SRB assay relative to control; format: functional; conditions: K562, 48 h, read-out: Activity
T47D = experiment: Cytotoxicity against human T47D cells assessed as cell growth at 10 uM after 48 hrs by SRB assay relative to control; format: functional; conditions: read-out: Activity
TK-10 = experiment: Cytotoxicity against human TK10 cells assessed as cell growth at 10 uM after 48 hrs by SRB assay relative to control; format: functional; conditions: TK-10, 48 h, read-out: Activity
SK-MEL-5 = experiment: Cytotoxicity against human SK-MEL-5 cells assessed as cell growth at 10 uM after 48 hrs by SRB assay relative to control; format: functional; conditions: SK-MEL-5, 48 h, read-out: Activity
786-0 = experiment: Cytotoxicity against human 786-0 cells assessed as cell growth at 10 uM after 48 hrs by SRB assay relative to control; format: functional; conditions: 786-0, 48 h, read-out: Activity
[1] = Cytotoxicity against human SKOV3 cells assessed as cell growth at 10 uM after 48 hrs by SRB assay relative to control; format: functional; conditions: SK-OV-3, 48 h, read-out: Activity
[2] = Cytotoxicity against human PC3 cells assessed as cell growth at 10 uM after 48 hrs by SRB assay relative to control; format: functional; conditions: PC-3, 48 h, read-out: Activity
HCC 2998 = experiment: Cytotoxicity against human HCC2998 cells assessed as cell growth at 10 uM after 48 hrs by SRB assay relative to control; format: functional; conditions: HCC 2998, 48 h, read-out: Activity
NCI-H322M = experiment: Cytotoxicity against human NCI-H322M cells assessed as cell growth at 10 uM after 48 hrs by SRB assay relative to control; format: functional; conditions: read-out: Activity
M14 = experiment: Cytotoxicity against human M14 cells assessed as cell growth at 10 uM after 48 hrs by SRB assay relative to control; format: functional; conditions: M14, 48 h, read-out: Activity
HOP-62 = experiment: Cytotoxicity against human HOP62 cells assessed as cell growth at 10 uM after 48 hrs by SRB assay relative to control; format: functional; conditions: HOP-62, 48 h, read-out: Activity
IGROV-1 = experiment: Cytotoxicity against human IGROV1 cells assessed as cell growth at 10 uM after 48 hrs by SRB assay relative to control; format: functional; conditions: IGROV-1, 48 h, read-out: Activity
MOLT-4 = experiment: Cytotoxicity against human MOLT4 cells assessed as cell growth at 10 uM after 48 hrs by SRB assay relative to control; format: functional; conditions: MOLT-4, 48 h, read-out: Activity
A498 = experiment: Cytotoxicity against human A498 cells assessed as cell growth at 10 uM after 48 hrs by SRB assay relative to control; format: functional; conditions: A498, 48 h, read-out: Activity
MDA-MB-231 [3] = experiment: Antimigratory activity against human MDA-MB-231 cells after 24 hrs by wound-healing assay; format: functional, cell-based; conditions: MDA-MB-231, 24 h
[4] = Cytotoxicity against human UACC257 cells assessed as cell growth at 10 uM after 48 hrs by SRB assay relative to control; format: functional; conditions: UACC-257, 48 h, read-out: Activity
MCF7 = experiment: Cytotoxicity against human MCF7 cells assessed as cell growth at 10 uM after 48 hrs by SRB assay relative to control; format: functional; conditions: MCF7, 48 h, read-out: Activity
[5] = Cytotoxicity against human NCI-ADR-RES cells assessed as cell growth at 10 uM after 48 hrs by SRB assay relative to control; format: functional; conditions: read-out: Activity
A549 = experiment: Cytotoxicity against human A549 cells assessed as cell growth at 10 uM after 48 hrs by SRB assay relative to control; format: functional; conditions: A549, 48 h, read-out: Activity
[6] = Cytotoxicity against human OVCAR3 cells assessed as cell growth at 10 uM after 48 hrs by SRB assay relative to control; format: functional; conditions: OVCAR-3, 48 h, read-out: Activity
[7] = Cytotoxicity against human OVCAR8 cells assessed as cell growth at 10 uM after 48 hrs by SRB assay relative to control; format: functional; conditions: OVCAR-8, 48 h, read-out: Activity
SK-MEL-2 = experiment: Cytotoxicity against human SK-MEL-2 cells assessed as cell growth at 10 uM after 48 hrs by SRB assay relative to control; format: functional; conditions: SK-MEL-2, 48 h, read-out: Activity
U-251 = experiment: Cytotoxicity against human U251 cells assessed as cell growth at 10 uM after 48 hrs by SRB assay relative to control; format: functional; conditions: U-251, 48 h, read-out: Activity
HT-29 = experiment: Cytotoxicity against human HT-29 cells assessed as cell growth at 10 uM after 48 hrs by SRB assay relative to control; format: functional; conditions: HT-29, 48 h, read-out: Activity
MDA-MB-231 [8] = experiment: Growth inhibition of human MDA-MB-231 cells after 72 hrs by MTT assay; format: functional, cell-based; conditions: MDA-MB-231, 72 h
SK-MEL-28 = experiment: Cytotoxicity against human SK-MEL-28 cells assessed as cell growth at 10 uM after 48 hrs by SRB assay relative to control; format: functional; conditions: SK-MEL-28, 48 h, read-out: Activity
SNB-75 = experiment: Cytotoxicity against human SNB75 cells assessed as cell growth at 10 uM after 48 hrs by SRB assay relative to control; format: functional; conditions: SNB-75, 48 h, read-out: Activity
KM12 = experiment: Cytotoxicity against human KM12 cells assessed as cell growth at 10 uM after 48 hrs by SRB assay relative to control; format: functional; conditions: KM12, 48 h, read-out: Activity
MDA-MB-435 = experiment: Cytotoxicity against human MDA-MB-435 cells assessed as cell growth at 10 uM after 48 hrs by SRB assay relative to control; format: functional; conditions: MDA-MB-435, 48 h, read-out: Activity
[9] = Cytotoxicity against human HCT15 cells assessed as cell growth at 10 uM after 48 hrs by SRB assay relative to control; format: functional; conditions: HCT-15, 48 h, read-out: Activity
RPMI-8226 = experiment: Cytotoxicity against human RPMI8226 cells assessed as cell growth at 10 uM after 48 hrs by SRB assay relative to control; format: functional; conditions: RPMI-8226, 48 h, read-out: Activity
LOX IMVI = experiment: Cytotoxicity against human LOXIMVI cells assessed as cell growth at 10 uM after 48 hrs by SRB assay relative to control; format: functional; conditions: read-out: Activity
MDA-MB-231 [10] = experiment: Cytotoxicity against human MDA-MB-231 cells assessed as cell growth at 10 uM after 48 hrs by SRB assay relative to control; format: functional; conditions: MDA-MB-231, 48 h, read-out: Activity

Row | Compound | growth at 10 µM (NCI-H226) | growth at 10 µM (ACHN) | growth at 10 µM (SF-539) | growth at 10 µM (K562) | growth at 10 µM (T47D) | growth at 10 µM (TK-10) | growth at 10 µM (SK-MEL-5) | growth at 10 µM (786-0) | growth at 10 µM [1] | growth at 10 µM [2] | growth at 10 µM (HCC 2998) | growth at 10 µM (NCI-H322M) | growth at 10 µM (M14) | growth at 10 µM (HOP-62) | growth at 10 µM (IGROV-1) | growth at 10 µM (MOLT-4) | growth at 10 µM (A498) | IC50 (MDA-MB-231 [3]) | growth at 10 µM [4] | growth at 10 µM (MCF7) | also measured
1 | COc1ccc(CCN2COc3c([C@@H](C)CCC=C(C)C)ccc(C)c3C2)cc1OC | 47% | 41% | 25% | 13.1% | -64% | -26% | -96% | -59% | 59% | -25% | -99% | 5% | -91% | -76% | -44% | 23% | 7% | 9.5 µM | 3% | 4% | growth at 10 µM [5]: -2%; growth at 10 µM (A549): 51%; growth at 10 µM [6]: 16%; growth at 10 µM [7]: 24%; growth at 10 µM (SK-MEL-2): -68%; growth at 10 µM (U-251): -47%; growth at 10 µM (HT-29): -29%; IC50 (MDA-MB-231 [8]): 16.3 µM; growth at 10 µM (SK-MEL-28): -44%; growth at 10 µM (SNB-75): 61%; growth at 10 µM (KM12): -2%; growth at 10 µM (MDA-MB-435): 3%; growth at 10 µM [9]: 2%; growth at 10 µM (RPMI-8226): -10%; growth at 10 µM (LOX IMVI): -65%; growth at 10 µM (MDA-MB-231 [10]): -3%
2 | CC(C)=CCC[C@H](C)c1ccc(C)c2c1OCN(CCCCCO)C2 | 98.4% | 94.1% | 84.5% | 31.1% | 88.1% | 73.7% | 91.7% | 69.5% | 88.8% | 68.6% | 73.5% | 102% | 84.2% | 92.5% | 90.4% | 66.5% | 75.3% | 10 µM | 78.4% | 88.7% | growth at 10 µM [5]: 76%; growth at 10 µM (A549): 82.5%; growth at 10 µM [6]: 99.7%; growth at 10 µM [7]: 90.1%; growth at 10 µM (SK-MEL-2): 92.7%; growth at 10 µM (U-251): 83.8%; growth at 10 µM (HT-29): 27.2%; IC50 (MDA-MB-231 [8]): 5.4 µM; growth at 10 µM (SK-MEL-28): 115%; growth at 10 µM (SNB-75): 85.6%; growth at 10 µM (KM12): 104%; growth at 10 µM (MDA-MB-435): 97.1%; growth at 10 µM [9]: 94%; growth at 10 µM (RPMI-8226): 76.7%; growth at 10 µM (LOX IMVI): 77.6%; growth at 10 µM (MDA-MB-231 [10]): 93.4%
